Data reported in US9150546B2, “Triazine derivative and pharmaceutical composition comprising the same” (SHIONOGI & CO., LTD., priority 2009, dated 2015).

Molecular target: human P2X3 receptor (Homo sapiens (Human), UniProt P56373)
Test: P2X3 receptor inhibition, ATP-evoked Fluo-3 fluorescence (FDSS 3000)
Format: cell-based
Conditions: C6BU-1 cell transfected with human P2X3 receptor gene

Chain of human P2X3 receptor (P56373 whole entry): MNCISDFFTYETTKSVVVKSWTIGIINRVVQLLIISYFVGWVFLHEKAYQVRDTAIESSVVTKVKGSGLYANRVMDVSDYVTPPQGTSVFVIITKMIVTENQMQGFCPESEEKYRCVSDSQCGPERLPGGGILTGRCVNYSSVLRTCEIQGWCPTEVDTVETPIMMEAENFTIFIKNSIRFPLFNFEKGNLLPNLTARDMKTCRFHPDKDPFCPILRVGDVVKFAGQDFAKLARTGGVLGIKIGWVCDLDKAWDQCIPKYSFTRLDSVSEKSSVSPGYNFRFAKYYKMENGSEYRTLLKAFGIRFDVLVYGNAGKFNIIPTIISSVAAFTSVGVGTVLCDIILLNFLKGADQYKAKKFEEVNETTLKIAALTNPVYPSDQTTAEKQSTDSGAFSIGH

| Compound | IC50 |
| --- | --- |
| CC(C)Oc1ccc(/N=c2\[nH]c(=O)n([C@@H](C)CC(=O)O)c(=O)n2Cc2ccc(Cl)cc2)cc1Cl [I-526] | 24 nM |
| CC(C)Oc1ccc(/N=c2\[nH]c(=O)n([C@@H](C)CC(=O)O)c(=O)n2Cc2ccc(Cl)cc2)cc1F [I-527] | 33 nM |
| Cc1cc(/N=c2\[nH]c(=O)n([C@@H](C)CC(=O)O)c(=O)n2Cc2ccc(Cl)cc2)ccc1OC(C)C [I-528] | 53 nM |
| COC(=O)[C@@H](C)Cn1c(=O)nc(Nc2ccc(OC(C)C)cc2)n(Cc2ccc(Cl)cc2)c1=O [I-529] | 22 nM |
| CCOc1ccc(Nc2nc(=O)n(C[C@H](C)C(=O)OC)c(=O)n2Cc2ccc(Cl)cc2)cc1 [I-530] | 34 nM |
| COC(=O)[C@@H](C)Cn1c(=O)nc(Nc2ccc(OC(C)C)c(C)c2)n(Cc2ccc(Cl)cc2)c1=O [I-531] | 10 nM |
| CCOc1ccc(Nc2nc(=O)n(C[C@H](C)C(=O)OC)c(=O)n2Cc2ccc(Cl)cc2)cc1C [I-532] | 29 nM |
| CCOc1ccc(Nc2nc(=O)n(C[C@H](C)C(=O)OC)c(=O)n2Cc2ccc(Cl)cc2)cc1Cl [I-533] | 10 nM |
| COC(=O)[C@@H](C)Cn1c(=O)[nH]/c(=N\c2ccc3oc(C)cc3c2)n(Cc2ccc(Cl)cc2)c1=O [I-534] | 18 nM |
| CCOc1ccc(/N=c2\[nH]c(=O)n(C[C@H](C)C(=O)O)c(=O)n2Cc2ccc(Cl)cc2)cc1 [I-535] | 52 nM |
| CCOc1ccc(/N=c2\[nH]c(=O)n(C[C@H](C)C(=O)O)c(=O)n2Cc2ccc(Cl)cc2)cc1C [I-536] | 46 nM |
| CC(C)Oc1ccc(/N=c2\[nH]c(=O)n(C[C@H](C)C(=O)O)c(=O)n2Cc2ccc(Cl)cc2)cc1 [I-537] | 19 nM |
| Cc1cc(/N=c2\[nH]c(=O)n(C[C@H](C)C(=O)O)c(=O)n2Cc2ccc(Cl)cc2)ccc1OC(C)C [I-538] | 16 nM |
| CCOc1ccc(/N=c2\[nH]c(=O)n(C[C@H](C)C(=O)O)c(=O)n2Cc2ccc(Cl)cc2)cc1Cl [I-539] | 7 nM |
| Cc1cc2cc(/N=c3\[nH]c(=O)n(C[C@H](C)C(=O)O)c(=O)n3Cc3ccc(Cl)cc3)ccc2o1 [I-540] | 27 nM |
| CC(C)Oc1ccc(/N=c2\[nH]c(=O)n(CC(C)(C)C(=O)O)c(=O)n2Cc2ccc(Cl)cc2)cc1 [I-541] | 58 nM |
| CCOc1ccc(/N=c2\[nH]c(=O)n(CC(C)(C)C(=O)O)c(=O)n2Cc2ccc(Cl)cc2)cc1 [I-542] | 96 nM |
| CC(C)(Cn1c(=O)[nH]/c(=N\c2ccc(OC(F)F)cc2)n(Cc2ccc(Cl)cc2)c1=O)C(=O)O [I-543] | 172 nM |
| CSc1ccc(/N=c2\[nH]c(=O)n(CC(C)(C)C(=O)O)c(=O)n2Cc2ccc(Cl)cc2)cc1 [I-544] | 601 nM |
| CC(C)Oc1ccc(Nc2nc(=O)n(CCOC3CCCCO3)c(=O)n2Cc2ccc(Cl)cc2)cc1F (stereo not shown) [I-545] | 6 nM |
| CC(C)Oc1ccc(/N=c2\n(C)c(=O)n(CCOC3CCCCO3)c(=O)n2Cc2ccc(Cl)cc2)cc1F (stereo not shown) [I-546] | 459 nM |
| COC(=O)C(C)(C)Cn1c(=O)[nH]/c(=N\c2ccc(OC(C)C)c(Cl)c2)n(CC2CCCCC2)c1=O [I-547] | 11 nM |
| COC(=O)[C@@H](C)Cn1c(=O)[nH]/c(=N\c2ccc(OC(C)C)c(Cl)c2)n(CC2CCCCC2)c1=O [I-548] | 12 nM |

| Compound | IC50 |
| --- | --- |
| COC(=O)C(C)(C)Cn1c(=O)[nH]/c(=N\c2ccc(OC(C)C)c(Cl)c2)n(CC2CCCCCC2)c1=O [I-549] | 19 nM |
| COC(=O)C(C)(C)Cn1c(=O)[nH]/c(=N\c2ccc(OC(C)C)c(Cl)c2)n(CC2CCCC2)c1=O [I-550] | 33 nM |
| CC(C)Oc1ccc(/N=c2\[nH]c(=O)n(CC(C)(C)C(=O)O)c(=O)n2CC2CCCCC2)cc1Cl [I-551] | 34 nM |
| CC(C)Oc1ccc(/N=c2\[nH]c(=O)n(C[C@H](C)C(=O)O)c(=O)n2CC2CCCCC2)cc1Cl [I-552] | 23 nM |
| CC(C)Oc1ccc(/N=c2\[nH]c(=O)n(CC(C)(C)C(=O)O)c(=O)n2CC2CCCCCC2)cc1Cl [I-553] | 34 nM |
| CC(C)Oc1ccc(/N=c2\[nH]c(=O)n(CC(C)(C)C(=O)O)c(=O)n2CC2CCCC2)cc1Cl [I-554] | 139 nM |
| COC(=O)[C@@H](C)Cn1c(=O)[nH]/c(=N\c2ccc(OC(C)C)c(C)c2)n(CC2CCCCC2)c1=O [I-555] | 13 nM |
| COC(=O)C[C@@H](C)n1c(=O)[nH]/c(=N\c2ccc(OC(C)C)c(Cl)c2)n(Cc2ccc(Cl)cc2)c1=O [I-556] | 5 nM |
| COC(=O)C[C@@H](C)n1c(=O)[nH]/c(=N\c2ccc(OC(C)C)c(C)c2)n(Cc2ccc(Cl)cc2)c1=O [I-557] | 19 nM |
| COC(=O)[C@H](C)Cn1c(=O)[nH]/c(=N\c2ccc3oc(C)cc3c2)n(Cc2ccc(Cl)cc2)c1=O [I-558] | 5 nM |
| Cc1cc(/N=c2\[nH]c(=O)n(C[C@H](C)C(=O)O)c(=O)n2CC2CCCCC2)ccc1OC(C)C [I-559] | 97 nM |
| COC(=O)C[C@@H](C)n1c(=O)[nH]/c(=N\c2ccc(OC(C)C)c(F)c2)n(Cc2ccc(Cl)cc2)c1=O [I-560] | 7 nM |
| CC(C)Oc1ccc(/N=c2\[nH]c(=O)n([C@H](C)CC(=O)O)c(=O)n2Cc2ccc(Cl)cc2)cc1Cl [I-561] | 8 nM |
| CC(C)Oc1ccc(/N=c2\[nH]c(=O)n([C@H](C)CC(=O)O)c(=O)n2Cc2ccc(Cl)cc2)cc1F [I-562] | 27 nM |
| Cc1cc(/N=c2\[nH]c(=O)n([C@H](C)CC(=O)O)c(=O)n2Cc2ccc(Cl)cc2)ccc1OC(C)C [I-563] | 40 nM |
| Cc1cc2cc(/N=c3\[nH]c(=O)n(C[C@@H](C)C(=O)O)c(=O)n3Cc3ccc(Cl)cc3)ccc2o1 [I-564] | 48 nM |
| CC(C)Oc1ccc(Nc2nc(OCCO)nc(=O)n2Cc2ccc(Cl)cc2)cc1F [II-002] | 79 nM |
| CC(C)Oc1ccc(Nc2nc(OCC(CO)CO)nc(=O)n2Cc2ccc(Cl)cc2)cc1F [II-008] | 943 nM |
| CC(C)Oc1ccc(/N=c2\[nH]c(OCC(=O)O)nc(=O)n2Cc2ccc(Cl)cc2)cc1Cl [II-009] | 34 nM |
| CC(C)Oc1ccc(/N=c2\[nH]c(OCC(C)(C)C(=O)O)nc(=O)n2Cc2ccc(Cl)cc2)cc1Cl [II-010] | 349 nM |
| CC(C)Oc1ccc(/N=c2\[nH]c(N3CCCC3=O)nc(=O)n2Cc2ccc(Cl)cc2)cc1Cl [II-012] | 568 nM |
| CCN(CC)c1nc(=O)n(Cc2ccc(Cl)cc2)/c(=N/c2ccc(OC(C)C)c(Cl)c2)[nH]1 [II-013] | 430 nM |
| CCOc1nc(=O)n(Cc2ccc(Cl)cc2)/c(=N/c2ccc(OC(C)C)c(Cl)c2)[nH]1 [II-014] | 254 nM |
